One may read the Ki as a measure of affinity in units of concentration, obtained from inhibition or displacement. What is called IC50 is the midpoint of a concentration-inhibition curve.

Experiment [1] concerns the target isolated recombinant JAK2 kinase domain (Homo sapiens (Human), UniProt O60674). Description: JAK2 enzyme assay (Caliper LabChip, Ki). The settings on record: read-out: JAK2 Ki.
Description: JAK Enzyme Assays were Carried Out as Follows:
The activity of the isolated recombinant JAK1 and JAK2 kinase domain was measured by monitoring phosphorylation of a peptide derived from JAK3 ([sequence] fluorescently labeled on the N-terminus with 5-carboxyfluorescein) using the Caliper LabChip R technology (Caliper Life Sciences, Hopkinton, Mass.). […] After termination of the kinase reaction, the proportion of phosphorylated product was determined as a fraction of total peptide substrate using the Caliper LabChip R 3000 according to the manufacturer's specifications.
The target of experiment [2] is isolated recombinant JAK1 kinase domain (Homo sapiens (Human), UniProt P23458). The experiment can be described thus: JAK1 enzyme assay (Caliper LabChip, Ki). Type of experiment: biochemical. The procedure: The activity of the isolated recombinant JAK1 and JAK2 kinase domain was measured by monitoring phosphorylation of a peptide derived from JAK3 ([…] fluorescently labeled on the N-terminus with 5-carboxyfluorescein) using the Caliper LabChip R technology (Caliper Life Sciences, Hopkinton, Mass.).
Chain of isolated recombinant JAK1 kinase domain (P23458 875-1153): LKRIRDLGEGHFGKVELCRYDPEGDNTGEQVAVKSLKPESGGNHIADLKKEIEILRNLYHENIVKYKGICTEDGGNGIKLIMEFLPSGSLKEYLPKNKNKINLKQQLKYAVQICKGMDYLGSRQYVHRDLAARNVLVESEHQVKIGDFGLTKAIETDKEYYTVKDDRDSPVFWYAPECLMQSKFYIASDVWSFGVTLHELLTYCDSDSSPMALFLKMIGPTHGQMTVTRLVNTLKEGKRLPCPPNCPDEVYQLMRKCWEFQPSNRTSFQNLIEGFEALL

The test system of experiment [3] is JAK1-dependent STAT6 phosphorylation in BEAS-2B human bronchial epithelial cells. Description: JAK1 pathway assay: IL-13 stimulated STAT6 phosphorylation in BEAS-2B cells. In kind it is cell-based. The settings on record: Homo sapiens, BEAS-2B, BEAS-2B cells, IL-13 stimulation; read-out: IL-13 p-STAT6 BEAS-2B IC50. A digest of the protocol:
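BEAS-2B bronchial epithelial cells plated one day before, run in complete growth medium. Phospho-STAT6 in lysates measured by MesoScale Discovery; EC50 reported.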

Chain of isolated recombinant JAK2 kinase domain (O60674 849-1124): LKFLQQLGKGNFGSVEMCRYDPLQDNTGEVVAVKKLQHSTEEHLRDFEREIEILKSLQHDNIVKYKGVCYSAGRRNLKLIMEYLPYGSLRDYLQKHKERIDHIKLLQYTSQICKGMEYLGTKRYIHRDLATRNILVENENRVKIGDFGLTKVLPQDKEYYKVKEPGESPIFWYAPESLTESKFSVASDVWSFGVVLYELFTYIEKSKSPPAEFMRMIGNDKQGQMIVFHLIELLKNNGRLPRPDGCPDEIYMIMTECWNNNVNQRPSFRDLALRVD

In the case of `N#CCn1cc(NC(=O)c2cnn3cccnc23)c(-c2cc3c(cc2OC(F)F)NCCO3)n1` [Example 144, N-[1-(cyanomethyl)-3-[6-(difluoromethoxy)-3,4-dihydro-2H-1,4-benzoxazin-7-yl]pyrazol-4-yl]pyrazolo[1,5-a]pyrimidine-3-carboxamide], the figures for the Ki in experiment [1] and in experiment [2] were 110 pM and 140 pM, respectively. Also, the IC50 in experiment [3] worked out at 7000 pM.
On to `Cn1cc(NC(=O)c2cnn3cccnc23)c(-c2cc3c(cc2OC(F)F)NC2(COC2)CO3)n1` [Example 147, N-(3-(6-(difluoromethoxy)-2,4-dihydrospiro[benzo[b][1,4]oxazine-3,3′-oxetan]-7-yl)-1-methyl-1H-pyrazol-4-yl)pyrazolo[1,5-a]pyrimidine-3-carboxamide], for which the figures for the inhibition constant (Ki) in experiment [1] and in experiment [2] were 320 pM and 340 pM, respectively. The IC50 in experiment [3] was found to be 14000 pM.
The matching figures for `C[C@H]1CNc2cc(OC(F)F)c(-c3n[nH]cc3NC(=O)c3cnn4cccnc34)cc2O1` [Example 148, (S)—N-(3-(6-(difluoromethoxy)-2-methyl-3,4-dihydro-2H-benzo[b][1,4]oxazin-7-yl)-1H-pyrazol-4-yl)pyrazolo[1,5-a]pyrimidine-3-carboxamide]: 170 pM, 510 pM and 55000 pM.
Turning to `Cn1cc(NC(=O)c2cnn3cccnc23)c(-c2cc3c(cc2OC(F)F)NCC(C)(C)O3)n1` [Example 149, N-(3-(6-(difluoromethoxy)-2,2-dimethyl-3,4-dihydro-2H-benzo[b][1,4]oxazin-7-yl)-1-methyl-1H-pyrazol-4-yl)pyrazolo[1,5-a]pyrimidine-3-carboxamide], the inhibitory constant (Ki) was 640 pM in experiment [1] and 1330 pM in experiment [2]. Also, the IC50 in experiment [3] was determined as 43000 pM.
On to `O=C(Nc1c[nH]nc1-c1cc2c(cc1OC(F)F)OCCO2)c1cnn2cccnc12` [Example 150, N-(3-(7-(difluoromethoxy)-2,3-dihydrobenzo[b][1,4]dioxin-6-yl)-1H-pyrazol-4-yl)pyrazolo[1,5-a]pyrimidine-3-carboxamide], for which the Ki in experiment [1] was 610 pM; in experiment [2], 1650 pM. Besides, the IC50 in experiment [3] is 61000 pM.
On the same counts, the results for `O=C(Nc1c[nH]nc1-c1cc2c(cc1OC(F)F)SCCO2)c1cnn2cccnc12` [Example 151, N-(3-(6-(difluoromethoxy)-2,3-dihydrobenzo[b][1,4]oxathiin-7-yl)-1H-pyrazol-4-yl)pyrazolo[1,5-a]pyrimidine-3-carboxamide] are 250 pM, 770 pM and 30000 pM.
On the same counts, the results for `O=C(Nc1c[nH]nc1-c1cc2sncc2cc1OC(F)F)c1cnn2cccnc12` [Example 152, N-(3-(5-(difluoromethoxy)benzo[d]isothiazol-6-yl)-1H-pyrazol-4-yl)pyrazolo[1,5-a]pyrimidine-3-carboxamide] are 60 pM, 100 pM and 4000 pM.
Take `O=C(Nc1c[nH]nc1-c1cc2cnsc2cc1OC(F)F)c1cnn2cccnc12` [Example 153, N-(3-(6-(difluoromethoxy)benzo[d]isothiazol-5-yl)-1H-pyrazol-4-yl)pyrazolo[1,5-a]pyrimidine-3-carboxamide]: the results for the inhibition constant (Ki) in experiment [1] and in experiment [2] were 80 pM and 150 pM, respectively. In addition, in experiment [3], the IC50 is 5000 pM.
On the same counts, the results for `CC(C)OC(=O)n1cc(NC(=O)c2cnn3cccnc23)c(-c2cc3c(cc2OC(F)F)NCCO3)n1` [Example 154, Propan-2-yl 3-[6-(difluoromethoxy)-3,4-dihydro-2H-1,4-benzoxazin-7-yl]-4-[pyrazolo[1,5-a]pyrimidine-3-amido]-1H-pyrazole-1-carboxylate] are 380 pM, 400 pM and 22000 pM.
